The test system of one experiment is P. berghei, N strain. Nature of the experiment: In vivo test in mice infected with P. berghei, N strain. The settings on record: for Mortality: female SWISS mice, 4 subcutaneous injections D0-D2. How it is done:
Methodology: the laboratory mice can be infected with various strains of rodent Plasmodium. Female SWISS mice (about 30 g) (5 per group) were inoculated on D0 with […] P. berghei parasites, chloroquinine-sensitive, lethal strain. The mice were treated between D0 and D2 using 4 subcutaneous injections of chloroquinine or of compound SN1, with a total dose of 1 or 10 mg/kg of weight. The parasitemia and mortality were monitored from D3, for at least 40 days.
The compound SN1 and its salt, SN1 ditartrate, were tested.

In experiment [1] the test system is P. falciparum line M25 (chloroquinine-sensitive). Nature of the experiment: In vitro activity on established line M25 (48 h culture). The class given is cell-based. The conditions noted are these: Plasmodium falciparum, two experiments, one line each. Here is the method: (§1) The proliferation of the parasites is measured by incorporation of ^3 [H] hypoxanthine applied to the cultures 16 hours before the end of the culture. The radioactive hypoxanthine is absorbed by the developing parasites. The quantity absorbed is measured by a Beta counter in counts per minute.
(§2) Three P. faciparum lines M25, chloroquinine-sensitive, and FCM 6 and FCM 17, chloroquinine-resistant, were cultured at a parasitemia rate approaching 1%, at the trophozoite stage, for a period of 48 hours.

Experiment [2] has as its system field strains (Francevilloises strains). Nature of the experiment: In vitro inhibition of parasite proliferation (3[H] hypoxanthine incorporation), field strains. The format is cell-based, Plasmodium falciparum. How it is done: As mentioned above, the in vitro activity of organometallic complexes of the invention was measured on field strains.
as §1

The test system of experiment [3] is P. falciparum line FCM 6 (chloroquinine-resistant). Nature of the experiment: microbe, parasite or virus in culture. The class given is cell-based. The conditions noted are these: Plasmodium falciparum, FCM6, chloroquinine-resistant; two experiments, one line each. How it is done:
as §1, §2

Experiment [4] concerns P. falciparum line FCM 17 (chloroquinine-resistant). Nature of the experiment: microbe, parasite or virus in culture. The format is cell-based. The conditions noted are these: Plasmodium falciparum, FCM17, chloroquinine-resistant; two experiments, one line each. Here is the method:
as §1, §2

Another experiment relates to P. yoelii, strain NS. In words: In vivo test in mice infected with chloroquinine-resistant P. yoelii, strain NS. The conditions noted are these: 10 mg/kg.

≈ marks a conversion by molar mass, not a printed value. Read-outs that look alike come from different tables or passages of the source.

The text below walks through data of patent US6127543A, “Antimalarial organometallic iron complexes” (Universite des Sciences et Technologies de Lille, priority 1995, dated 2000).

For `CCN(CC)CCCC(C)Nc1ccnc2cc(Cl)ccc12` (centres unmarked) [Chloroquinine], the Mortality with P. berghei, N strain (Exp 1, total dose 1 mg/kg) is on record as 5/5; in the experiment with P. berghei, N strain (Exp 1, total dose 10 mg/kg), 5/5; in the experiment with P. berghei, N strain (Exp 2, total dose 1 mg/kg), 5/5; in the experiment on P. berghei, N strain (Exp 2, total dose 10 mg/kg) it was 5/5. Moreover, the IC50 is 0.069 µg/mL (≈ 0.216 µM) in experiment [1]; 200 nM in experiment [2] (Plasmodium falciparum, Strain No. 17); over 1000 nM in experiment [2] (Plasmodium falciparum, Strain No. 265); 980 nM in experiment [2] (Plasmodium falciparum, Strain No. 309); over 1000 nM in experiment [2] (Plasmodium falciparum, Strain No. 823); 190 nM in experiment [2] (Plasmodium falciparum, Strain No. 917). For the same compound, the IC50 in experiment [2] (Plasmodium falciparum, Strain No. 926) was over 1000 nM; in experiment [2] (Plasmodium falciparum, Strain No. 935), over 1000 nM; in experiment [2] (Plasmodium falciparum, read-out: IC50 (range over strains), Francevilloises strains, 7 strains tested), 190 to 1000 nM; in experiment [2] (Plasmodium falciparum, read-out: ID 50, Strain No. 17), 2000 nM; in experiment [2] (Plasmodium falciparum, read-out: ID 50, Strain No. 265), over 10000 nM; in experiment [2] (Plasmodium falciparum, read-out: ID 50, Strain No. 309) it was 9800 nM. Besides, the IC50 was over 10000 nM in experiment [2] (Plasmodium falciparum, read-out: ID 50, Strain No. 823); 1900 nM in experiment [2] (Plasmodium falciparum, read-out: ID 50, Strain No. 917); over 10000 nM in experiment [2] (Plasmodium falciparum, read-out: ID 50, Strain No. 926); over 10000 nM in experiment [2] (Plasmodium falciparum, read-out: ID 50, Strain No. 935); 0.492 µg/mL (≈ 1.54 µM) in experiment [3]; 0.555 µg/mL (≈ 1.74 µM) in experiment [4]. Moreover, the “chloroquinine-resistance of the strains” value in experiment [2] (in words, Francevilloises strains) is listed as “high chloroquinine-resistance”. In addition, the “parasites detected / parasitemia” value in the experiment on P. yoelii, strain NS is “high parasitemia”.
As to `CN(C)Cc1ccc[c-]1CNc1ccnc2cc(Cl)ccc12.[Fe+2].c1cc[cH-]c1` (centres unmarked) [SN1], the Mortality is 5/5 in the experiment on P. berghei, N strain (Exp 1, total dose 1 mg/kg); 1/5 in the experiment on P. berghei, N strain (Exp 1, total dose 10 mg/kg); 5/5 in the experiment on P. berghei, N strain (Exp 2, total dose 1 mg/kg); 0/5 with P. berghei, N strain (Exp 2, total dose 10 mg/kg). Moreover, the “in vivo activity compared with chloroquinine” value with P. berghei, N strain (in words, mice, P. berghei) is recorded as “better activity than chloroquinine in vivo”. The IC50 was 20 nM in experiment [2] (Strain No. 17, read-out: IC50); 170 nM in experiment [2] (Strain No. 265, read-out: IC50); 110 nM in experiment [2] (Strain No. 309, read-out: IC50); 120 nM in experiment [2] (Strain No. 823, read-out: IC50); 10 nM in experiment [2] (Strain No. 917, read-out: IC50); 230 nM in experiment [2] (Strain No. 926, read-out: IC50). In addition, the IC50 in experiment [2] (Strain No. 935, read-out: IC50) worked out at 120 nM. The “action on the sole chloroquinine-resistant strain tested so far” value in experiment [2] (in words, in vitro) was “marked action”. For the same compound, in experiment [2] (in words, in vitro, compared with quinine), the “action on the inhibition of parasitemia” value is reported as “greater action on the inhibition of parasitemia than quinine”.
